Assay: Toxicity in human erythrocytes assessed as hemolytic activity after 24 hrs
Format: cell-based, Erythrocyte

Structure (SMILES)	EC50 at 24 h
C=C(CCC(O)C1OC(CC(O)C(O)C(C)CCCC(O)C(O)C(O)C(C)CCC(O)C(O)C(C)CC(O)CCCC(O)CCCC(O)/C=C/CC(O)CO)C(O)C(O)C1O)C(O)C(O)C1CC(O)C(O)C(C(O)C(O)/C=C/CCCCCCCCCC/C=C/C=C/Cl)O1 (stereo not given)	56 nM
C=C(CCC(O)C1OC(CC(O)C(O)C(C)CCCC(O)C(O)C(O)C(C)CCC(O)C(O)C(C)CC(O)CCCC(O)CCCC(O)/C=C/CC(O)CO)C(O)C(O)C1O)C(O)C(O)C1CC(O)C(O)C(C(O)C(O)/C=C/CCCCCCCCC/C=C/C=C/Cl)O1 (stereo not given)	110 nM
C=C/C=C/CCCCCCCCCC/C=C/C(O)C(O)C1OC(C(O)C(O)C(=C)CCC(O)C2OC(CC(O)C(O)C(C)CCCC(O)C(O)C(O)C(C)CCC(O)C(O)C(C)CC(O)CCCC(O)CCCC(O)/C=C/CC(O)CO)C(O)C(O)C2O)CC(O)C1O (stereo not given)	63 nM
C=C/C=C/CCCCCCCCCC/C=C/C(O)C(O)C1OC(C(O)C(O)C(=C)CCC(O)C2OC(CC(O)C(O)C(C)CCCC(O)C(O)C(O)C(C)CCC(O)C(O)C(C)CC(O)CCCC(CCCC(O)/C=C/CC(O)CO)OS(=O)(=O)O)C(O)C(O)C2O)CC(O)C1O (stereo not given)	300 nM
C=C/C=C/CCCCCCCCC/C=C/C(O)C(O)C1OC(C(O)C(O)C(=C)CCC(O)C2OC(CC(O)C(O)C(C)CCCC(O)C(O)C(O)C(C)CCC(O)C(O)C(C)CC(O)CCCC(O)CCCC(O)/C=C/CC(O)CO)C(O)C(O)C2O)CC(O)C1O (stereo not given)	200 nM

Source: ChEMBL document CHEMBL1212939, “Structure and relative potency of several karlotoxins from Karlodinium veneficum” (J Nat Prod, 2010)
